Reference: patent US20210261561A1, “BICYCLIC HETEROCYCLE DERIVATIVES HAVING SELECTIVE BACE1 INHIBITORY ACTIVITY” (SHIONOGI & CO., LTD., priority 2018, published 2021)

Experiments:
[1] = target: T1, BACE1 (Homo sapiens, UniProt P56817); assay: BACE1 cellular αLisa assay in SKNBE2 cells, Abeta 1-42 (Test Example 2-3); format: cell-based; design: endogenous in cells; host or cells: SKNBE2 human neuroblastoma cells expressing hAPP695; settings: SKNBE2 cells expressing hAPP695, 18 hours incubation, read-out: Cellular αLisa assay in SKNBE2 cells Abeta 42 pIC50 (converted)
Method: In two αLisa assays the levels of Abeta 1-42 or Abeta total produced and secreted into the medium of human neuroblastoma SKNBE2 cells are quantified. The assays are based on the human neuroblastoma SKNBE2 expressing the wild type Amyloid Precursor Protein (hAPP695). The compounds are diluted and added to these cells, incubated for 18 hours and then measurements of Abeta 1-42 or Abeta total are taken. Abeta 1-42 or Abeta total are measured by sandwich αLisa using biotinylated antibody AbN/25 attached to streptavidin coated donor beads and antibody cAb42/26 or Ab 4G8 conjugated acceptor beads for the detection of Abeta 1-42 or Abeta total respectively. In the presence of Abeta 1-42 or Abeta total, the beads come into close proximity. The excitation of the donor beads provokes the release of singlet oxygen molecules that trigger a cascade of energy transfer in the acceptor beads, resulting in light emission. Light emission is measured after 1 h incubation (excitation at […] and emission at 615 nm).
(§1) Data are analysed using Screener (Registered trademark) (Genedata, Switzerland). Data were normalized and % inhibition=100−[(sample−LC)/(HC−LC))*100], was plotted versus the log concentration of the test compound. Curves were analysed using non-linear regression analysis and IC50 values (inhibitory concentration causing 50% inhibition of activity) were derived from individual curves.
LC=Median of the low control values • =Low control: Reaction without enzyme
HC=Median of the High control values • =High Control: Reaction with enzyme
(§2) % Inhibition=100−[(sample−LC)/(HC−LC)*100]

[2] = target: T2, BACE2 (Homo sapiens, UniProt Q9Y5Z0); assay: BACE2 biochemical FRET based assay (Test Example 2-4); settings: recombinant BACE2 0.4 μg/mL, 10 μM substrate, 450 minutes, pH 5.0; read-out: BACE2 Biochemical FRET based assay pIC50 (converted)
T2 sequence (Q9Y5Z0 63-518): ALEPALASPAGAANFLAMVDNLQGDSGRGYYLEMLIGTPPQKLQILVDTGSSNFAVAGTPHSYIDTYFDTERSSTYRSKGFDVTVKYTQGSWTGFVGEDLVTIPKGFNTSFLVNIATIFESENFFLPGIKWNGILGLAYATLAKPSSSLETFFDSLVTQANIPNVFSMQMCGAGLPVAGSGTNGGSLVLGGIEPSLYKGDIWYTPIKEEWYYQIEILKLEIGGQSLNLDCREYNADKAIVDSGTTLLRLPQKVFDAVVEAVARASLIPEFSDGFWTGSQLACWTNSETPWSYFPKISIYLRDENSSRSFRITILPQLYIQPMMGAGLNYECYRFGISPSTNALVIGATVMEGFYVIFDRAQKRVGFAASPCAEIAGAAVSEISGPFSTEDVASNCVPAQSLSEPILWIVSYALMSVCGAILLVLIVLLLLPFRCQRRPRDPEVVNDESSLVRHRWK
Excerpt: (§3) This assay is a Fluorescence Resonance Energy Transfer Assay (FRET) based assay. The substrate for this assay contains the ‘Swedish’ Lys-Met/Asn-Leu mutation of the amyloid precursor protein (APP) beta-secretase cleavage site. This substrate also contains two fluorophores: (7-methoxycoumarin-4-yl) acetic acid (Mca) is a fluorescent donor with excitation wavelength at 320 nm and emission at 405 nm and 2,4-dinitrophenol (Dnp) is a proprietary quencher acceptor. […] Upon cleavage by the beta-secretase, the fluorophore Mca is separated from the quenching group Dnp, restoring the full fluorescence yield of the donor. The increase in fluorescence is linearly related to the rate of proteolysis.
Briefly in a 384-well format recombinant BACE2 protein in a final concentration of 0.4 μg/mL is incubated for 450 minutes at room temperature with 10 μM substrate in incubation buffer (final concentrations: 33.3 mM Citrate buffer pH 5.0, 0.033% PEG, 2% DMSO) in the absence or presence of compound. Next the amount of proteolysis is directly measured by fluorescence measurement at T=0 and T=450 (excitation at 320 nm and emission at 405 nm). Results are expressed in RFU (Relative Fluorescence Units), as difference between T450 and TO.
as §1
(§4) LC=Median of the low control values
(§5) =Low control: Reaction without enzyme
(§6) HC=Median of the High control values
(§7) =High Control: Reaction with enzyme
as §2

[3] = target: T1, BACE1; assay: BACE1 biochemical FRET based assay - Method 1 (Test Example 2-2); settings: 0.04 μg/mL BACE1, 450 minutes, Citrate buffer pH 5.0, read-out: BACE1 Biochemical FRET based assay - Method 1 PIC50 (converted)
Excerpt: as §3, with “this assay is an APP derived 13 amino acids peptide that contains the” for “this assay contains the”, “protein (APP) beta-site secretase cleavage site.” for “protein (APP) beta-secretase cleavage site.”, “cleavage by BACE1, the fluorophore” for “cleavage by the beta-secretase, the fluorophore”
Briefly in a 384-well format recombinant BACE1 protein in a final concentration of 0.04 μg/mL is incubated for 450 minutes at room temperature with […] substrate in incubation buffer (final concentrations: 33.3 mM Citrate buffer pH 5.0, 0.033% PEG, 3% DMSO) in the absence or presence of compound. Next the amount of proteolysis is directly measured by fluorescence measurement at T=0′-120′ and T=450′ (excitation at 320 nm and emission at 405 nm). Results are expressed in RFU (Relative Fluorescence Units), as difference between T450 and Tx (Tx is chosen depending on the reaction speed between 0 and 120 minutes.).
as §1, §4, §5, §6, §7, §2

[4] = test system: Abeta 1-37, Abeta 1-38, Abeta 1-40 and Abeta 1-42 in cerebrospinal fluid (CSF); assay: Pharmacology in the beagle dog, beta-amyloid profile in CSF (Test Example 18-2); format: in vivo; settings: single dose 0.63 mg/kg
Method: Test compounds were tested to evaluate the effect on the beta-amyloid profile in cerebrospinal fluid (CSF) of dogs after a single dose, in combination with pharmacokinetic (PK) follow up and limited safety evaluation.
For each of compound II-6 or II-10, four beagle dogs (2 males, 2 females) were dosed with vehicle (1 mL/kg of an aqueous solution of 20% cyclodextrin) and 12 beagle dogs (2 males and 2 females per dosage group) were dosed with test compounds as follows:
In the case of compounds II-2, II-3 and II-18, two beagle dogs (1 male, 1 female) were dosed with vehicle (1 mL/kg of an aqueous solution of 20% cyclodextrin) and 4 beagle dogs (2 males and 2 females) were dosed with test compound (II-2, II-3, or II-18) at the doses indicated in the following Table in an aqueous 20% cyclodextrin solution with a concentration in mg/mL identical to the dose given in mg/kg) on an empty stomach.
CSF was taken in conscious animals directly from the lateral ventricle via a cannula which was screwed in the skull and covered with subcutaneous tissue and skin, before and at 4, 8, 25 and 49 hours after dosing. Eight hours after dosing the animals got access to their regular meal for 30 minutes. Blood was taken for PK follow up (0.5, 1, 2, 4, 8, 25 and 49 hours) and serum samples for biochemistry were taken before and at 8 and 25 h after dosing. The CSF samples were used for measurement of Abeta 1-37, Abeta 1-38, Abeta 1-40 and Abeta 1-42.

T1 sequence (P56817 46-501): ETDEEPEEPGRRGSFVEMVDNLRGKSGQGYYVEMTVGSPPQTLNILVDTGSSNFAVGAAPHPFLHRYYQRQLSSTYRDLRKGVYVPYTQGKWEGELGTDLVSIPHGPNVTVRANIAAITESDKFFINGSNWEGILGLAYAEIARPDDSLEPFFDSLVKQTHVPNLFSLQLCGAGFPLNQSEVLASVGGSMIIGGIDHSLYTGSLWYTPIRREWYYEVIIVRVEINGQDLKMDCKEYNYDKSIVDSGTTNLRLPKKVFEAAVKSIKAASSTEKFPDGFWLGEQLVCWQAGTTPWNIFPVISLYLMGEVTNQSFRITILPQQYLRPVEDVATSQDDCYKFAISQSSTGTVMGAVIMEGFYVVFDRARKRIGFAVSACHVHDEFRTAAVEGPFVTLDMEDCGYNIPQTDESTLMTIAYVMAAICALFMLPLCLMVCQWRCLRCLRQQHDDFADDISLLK

IC50 [1]: 4.47 nM
IC50 [2]: 240 nM
IC50 [3]: 3.24 nM
melting point: 195 °C
Compound: CC1(S(C)(=O)=O)CCC(CF)(c2cc(NC(=O)c3cc4c(cn3)OC(F)(F)O4)cc(F)c2F)N=C1N (stereo not drawn) [II-18]
% Decrease in Abeta 1-42 at 8 h post dosing compared to own baseline ([4]; 8 h): 53%
% Decrease in Abeta 1-42 at 24 h^(a) or 25 h^(b) post dosing compared to own baseline ([4]; 24 h or 25 h): 27%
